Measurements published in patent US11844806B2 (Asamedic AS, priority 2017, dated 2023).

How the values were obtained:
[1] = Dissolution of ASA on mixing with phosphate salt solution or water, shaken in the two component device; type: physicochemical
Method: (§1) The cap comprising the powder compartment and the cutting element was assembled with the container comprising the solution.
(§2) The cap was then turned down until the seal keeping the powder and the solution separately was broken by the cutting element. […] The device was then shaken until all ASA was dissolved.
(§3) The solution was then shaken until all ASA was dissolved. A light-yellow coloring of the solution was observed.
(§4) After releasing the ASA and sodium carbonate into the water, the solution was shaken until all ASA was dissolved.

[2] = pH of the solution after dissolution of ASA; type: physicochemical; settings: for Measured pH of the solutions after dissolution of ASA: 300 mg ASA
Method: as §1, §2
Further aqueous solutions of salts of phosphoric acid were prepared. These phosphoric acid salt solutions were prepared in order to test the dissolution time of ASA at different final pH values i.e. the pH in the final ASA solution that are to be taken by the patient. Thus, the amount (mg) of the salt of phosphoric acid to be used was calculated based on the final pH to be obtained (theoretically pH).
as §3, §4

CC(=O)Oc1ccccc1C(=O)O [ASA, acetylsalicylic acid]
Time before ASA was dissolved ([1]; 300 mg ASA and 258-263 mg Na2CO3 released together into 15 ml pure water, test device, Example 7 (carbonate comparison)): approx. 120 sec.
Time in which ASA is dissolved in the Na2HPO4 solutions ([1]; 300 mg ASA, 15 ml, pH in the final solution set between approximately 7 to 8 (summary of table 2)): ≤ 25 s
Time in which ASA is dissolved in the Na3PO4.12H2O solution ([1]; 300 mg ASA, 15 ml, pH in the final solution set to approximately 7 (summary of table 3)): ≤ 25 s
Time until all ASA was dissolved ([1]; 300 mg crushed ASA and 1000 mg crushed Na2HPO4 released together into 15 ml pure water, test device, Example 3): ≤ 30 s
Time until all ASA was dissolved ([1]; 304 mg ASA and 610 mg Na3PO4 released at the same time into 15 ml pure water, Example 5): ≤ 30 s
300 mg ASA in 15 ml solution dissolved within 25 seconds ([1]; 422 mg (1.11 · 10^−3 mol) Na3PO4•12H2O in 15 ml, theoretical pH 7.2): yes
300 mg ASA in 15 ml solution dissolved within 25 seconds ([1]; 474 mg (3.34 · 10^−3 mol) Na2HPO4 in 15 ml, theoretical pH 7.2): Yes
300 mg ASA in 15 ml solution dissolved within 25 seconds ([1]; 950 mg (6.67 · 10^−3 mol) Na2HPO4 in 15 ml, theoretical pH 7.7): Yes
300 mg ASA in 15 ml solution dissolved within 25 seconds ([1]; 1730 mg (1.21 · 10^−2 mol) Na2HPO4 in 15 ml, theoretical pH 8.0): Yes
pH of the solutions after dissolution of ASA and the carbonate salt ([2]; 300 mg ASA and 258-263 mg Na2CO3 in 15 ml pure water, Example 7): 9.41-9.43
Measured pH of the solutions after dissolution of ASA ([2]; 422 mg Na3PO4•12H2O in 15 ml, theoretical pH 7.2): 7.6
Measured pH of the solutions after dissolution of ASA ([2]; 474 mg Na2HPO4 in 15 ml, theoretical pH 7.2): 7.0
Measured pH of the solutions after dissolution of ASA ([2]; 1730 mg Na2HPO4 in 15 ml, theoretical pH 8.0): 7.7
pH of the solution after dissolution of ASA and the hydrogen phosphate salt ([2]; 300 mg crushed ASA and 1000 mg crushed Na2HPO4 in 15 ml pure water, Example 3): 7
pH of the solution after dissolution of ASA and the phosphate salt ([2]; 304 mg ASA and 610 mg Na3PO4 in 15 ml pure water, Example 5): 10.72
